pIC50: −log10 of the molar value. Active and inactive are the calls of the source. No cut-off for these calls is given here.
Assays:
MCF7 [1] = assay: Antiproliferative activity against human MCF7 cells after 72 hrs by MTT assay; format: functional, cell-based; settings: MCF7, 72 h
HCT-116 [2] = assay: Antiproliferative activity against human HCT116 cells after 72 hrs by MTT assay; format: functional, cell-based; settings: HCT-116, 72 h
Caco-2 = assay: Cytotoxicity against human Caco2 cells assessed as reduction in cell viability at 1 to 10 uM after 72 hrs by MTT assay; format: cell-based; settings: caco-2, 72 h
HCT-116 [3] = assay: Cell cycle arrest human HCT116 cells assessed as decrease in accumulation at G1 phase at 0.2 uM after 48 hrs by propidium iodide/RNase staining based FACS analysis; format: functional
HCT-116 [4] = assay: Induction of apoptosis in human HCT116 cells assessed as necrotic cells at 0.2 uM measured after 48 hrs by Annexin-V-FITC/propidium iodide staining based flow cytometric method (reference value: 0%); format: functional
HCT-116 [5] = assay: Cell cycle arrest human HCT116 cells assessed as increase in accumulation at subG0/G1 phase at 0.2 uM after 48 hrs by propidium iodide/RNase staining based FACS analysis; format: functional
HCT-116 [6] = assay: Cell cycle arrest human HCT116 cells assessed as increase in accumulation at G2/M phase at 0.2 uM after 48 hrs by propidium iodide/RNase staining based FACS analysis; format: functional
MCF7 [7] = assay: Induction of apoptosis in human MCF7 cells assessed as necrotic cells at 2 uM measured after 48 hrs by Annexin-V-FITC/propidium iodide staining based flow cytometric method (reference value: 0%); format: functional
MCF7 [8] = assay: Cell cycle arrest in human MCF7 cells assessed as decrease in accumulation at G1 phase at 2 uM after 48 hrs by propidium iodide/RNase staining based FACS analysis; format: functional
MCF7 [9] = assay: Induction of apoptosis in human MCF7 cells assessed as early apoptotic cells at 2 uM measured after 48 hrs by Annexin-V-FITC/propidium iodide staining based flow cytometric method (reference value: 0.1%); format: functional
HCT-116 [10] = assay: Cell cycle arrest human HCT116 cells assessed as decrease in accumulation at S phase at 0.2 uM after 48 hrs by propidium iodide/RNase staining based FACS analysis; format: functional
HCT-116 [11] = assay: Induction of apoptosis in human HCT116 cells assessed as early apoptotic cells at 0.2 uM measured after 48 hrs by Annexin-V-FITC/propidium iodide staining based flow cytometric method (reference value: 0.4%); format: functional
MCF7 [12] = assay: Cell cycle arrest in human MCF7 cells assessed as increase in accumulation at subG0/G1 phase at 2 uM after 48 hrs by propidium iodide/RNase staining based FACS analysis; format: functional
HCT-116 [13] = assay: Induction of apoptosis in human HCT116 cells assessed as viable cells at 0.2 uM measured after 48 hrs by Annexin-V-FITC/propidium iodide staining based flow cytometric method (reference value: 99.6%); format: functional; settings: HCT-116, 48 h, read-out: Activity
HCT-116 [14] = assay: Induction of apoptosis in human HCT116 cells assessed as late apoptotic cells at 0.2 uM measured after 48 hrs by Annexin-V-FITC/propidium iodide staining based flow cytometric method (reference value: 0%); format: functional
Sus scrofa [15] = species on record: Sus scrofa; assay: Inhibition of porcine brain tubulin polymerization at 25 uM measured every 20 secs for 60 mins
MCF7 [16] = assay: Cell cycle arrest in human MCF7 cells assessed as increase in accumulation at G2/M phase at 2 uM after 48 hrs by propidium iodide/RNase staining based FACS analysis; format: functional
MCF7 [17] = assay: Induction of apoptosis in human MCF7 cells assessed as viable cells at 2 uM measured after 48 hrs by Annexin-V-FITC/propidium iodide staining based flow cytometric method (reference value: 99.9%); format: functional; settings: MCF7, 48 h, read-out: Activity
MCF7 [18] = assay: Cell cycle arrest in human MCF7 cells assessed as decrease in accumulation at S phase at 2 uM after 48 hrs by propidium iodide/RNase staining based FACS analysis; format: functional
MCF7 [19] = assay: Induction of apoptosis in human MCF7 cells assessed as late apoptotic cells at 2 uM measured after 48 hrs by Annexin-V-FITC/propidium iodide staining based flow cytometric method (reference value: 0%); format: functional
[20] = Inhibition of sheep brain tubulin polymerization incubated at 37 degreeC for 10 mins followed by incubated at 0 degreeC for 5 mins; set-up: species or system Ovis aries
Sus scrofa [21] = species on record: Sus scrofa; assay: Induction of porcine brain tubulin polymerization at 10 uM measured every 20 secs for 60 mins
HCT-116 [22] = assay: Cell cycle arrest human HCT116 cells assessed as decrease in accumulation at S phase at 0.3 uM after 48 hrs by propidium iodide/RNase staining based FACS analysis; format: functional
HCT-116 [23] = assay: Induction of apoptosis in human HCT116 cells assessed as necrotic cells at 0.3 uM measured after 48 hrs by Annexin-V-FITC/propidium iodide staining based flow cytometric method (reference value: 0%); format: functional
HCT-116 [24] = assay: Cell cycle arrest human HCT116 cells assessed as decrease in accumulation at G1 phase at 0.3 uM after 48 hrs by propidium iodide/RNase staining based FACS analysis; format: functional
HCT-116 [25] = assay: Induction of apoptosis in human HCT116 cells assessed as early apoptotic cells at 0.3 uM measured after 48 hrs by Annexin-V-FITC/propidium iodide staining based flow cytometric method (reference value: 0.4%); format: functional
HCT-116 [26] = assay: Induction of apoptosis in human HCT116 cells assessed as late apoptotic cells at 0.3 uM measured after 48 hrs by Annexin-V-FITC/propidium iodide staining based flow cytometric method (reference value: 0%); format: functional
HCT-116 [27] = assay: Induction of apoptosis in human HCT116 cells assessed as viable cells at 0.3 uM measured after 48 hrs by Annexin-V-FITC/propidium iodide staining based flow cytometric method (reference value: 99.6%); format: functional; settings: HCT-116, 48 h, read-out: Activity
HCT-116 [28] = assay: Cell cycle arrest human HCT116 cells assessed as increase in accumulation at G2/M phase at 0.3 uM after 48 hrs by propidium iodide/RNase staining based FACS analysis; format: functional
HCT-116 [29] = assay: Cell cycle arrest human HCT116 cells assessed as increase in accumulation at subG0/G1 phase at 0.3 uM after 48 hrs by propidium iodide/RNase staining based FACS analysis; format: functional
MCF7 [30] = assay: Cell cycle arrest in human MCF7 cells assessed as decrease in accumulation at G1 phase at 3 uM after 48 hrs by propidium iodide/RNase staining based FACS analysis; format: functional
MCF7 [31] = assay: Induction of apoptosis in human MCF7 cells assessed as necrotic cells at 3 uM measured after 48 hrs by Annexin-V-FITC/propidium iodide staining based flow cytometric method (reference value: 0%); format: functional
HCT-116 [32] = assay: Cell cycle arrest human HCT116 cells assessed as decrease in accumulation at G1 phase at 0.1 uM after 48 hrs by propidium iodide/RNase staining based FACS analysis; format: functional
MCF7 [33] = assay: Cell cycle arrest in human MCF7 cells assessed as increase in accumulation at subG0/G1 phase at 3 uM after 48 hrs by propidium iodide/RNase staining based FACS analysis; format: functional
HCT-116 [34] = assay: Cell cycle arrest human HCT116 cells assessed as increase in accumulation at subG0/G1 phase at 0.1 uM after 48 hrs by propidium iodide/RNase staining based FACS analysis; format: functional
HCT-116 [35] = assay: Cell cycle arrest human HCT116 cells assessed as decrease in accumulation at S phase at 0.1 uM after 48 hrs by propidium iodide/RNase staining based FACS analysis; format: functional
MCF7 [36] = assay: Cell cycle arrest in human MCF7 cells assessed as increase in accumulation at G2/M phase at 3 uM after 48 hrs by propidium iodide/RNase staining based FACS analysis; format: functional
HCT-116 [37] = assay: Induction of apoptosis in human HCT116 cells assessed as late apoptotic cells at 0.1 uM measured after 48 hrs by Annexin-V-FITC/propidium iodide staining based flow cytometric method (reference value: 0%); format: functional
HCT-116 [38] = assay: Cell cycle arrest human HCT116 cells assessed as increase in accumulation at G2/M phase at 0.1 uM after 48 hrs by propidium iodide/RNase staining based FACS analysis; format: functional
MCF7 [39] = assay: Induction of apoptosis in human MCF7 cells assessed as late apoptotic cells at 3 uM measured after 48 hrs by Annexin-V-FITC/propidium iodide staining based flow cytometric method (reference value: 0%); format: functional
HCT-116 [40] = assay: Induction of apoptosis in human HCT116 cells assessed as viable cells at 0.1 uM measured after 48 hrs by Annexin-V-FITC/propidium iodide staining based flow cytometric method (reference value: 99.6%); format: functional; settings: HCT-116, 48 h, read-out: Activity
HCT-116 [41] = assay: Induction of apoptosis in human HCT116 cells assessed as early apoptotic cells at 0.1 uM measured after 48 hrs by Annexin-V-FITC/propidium iodide staining based flow cytometric method (reference value: 0.4%); format: functional
MCF7 [42] = assay: Cell cycle arrest in human MCF7 cells assessed as decrease in accumulation at S phase at 3 uM after 48 hrs by propidium iodide/RNase staining based FACS analysis; format: functional
HCT-116 [43] = assay: Induction of apoptosis in human HCT116 cells assessed as necrotic cells at 0.1 uM measured after 48 hrs by Annexin-V-FITC/propidium iodide staining based flow cytometric method (reference value: 0%); format: functional
MCF7 [44] = assay: Induction of apoptosis in human MCF7 cells assessed as viable cells at 3 uM measured after 48 hrs by Annexin-V-FITC/propidium iodide staining based flow cytometric method (reference value: 99.9%); format: functional; settings: MCF7, 48 h, read-out: Activity
MCF7 [45] = assay: Induction of apoptosis in human MCF7 cells assessed as early apoptotic cells at 3 uM measured after 48 hrs by Annexin-V-FITC/propidium iodide staining based flow cytometric method (reference value: 0.1%); format: functional

O=C(N/N=C1/c2cccnc2-n2cccc21)c1ccc(O)cc1
pIC50 (MCF7 [1]): 4.79 | pIC50 (HCT-116 [2]): 5.60 | Activity (Caco-2): Non-Toxic

O=C(N/N=C1/c2cc(Br)cnc2-n2cccc21)c1ccco1
Activity (HCT-116 [3]): Active | pIC50 (MCF7 [1]): 5.79 | Activity (HCT-116 [4]): 0% | pIC50 (HCT-116 [2]): 6.77 | Activity (HCT-116 [5]): Active | Activity (HCT-116 [6]): Active | Activity (Caco-2): Non-Toxic | Activity (MCF7 [7]): 0% | Activity (MCF7 [8]): Active | Activity (MCF7 [9]): 21.8% | Activity (HCT-116 [10]): Active | Activity (HCT-116 [11]): 31.5% | Activity (MCF7 [12]): Active | viability at 0.2 µM (HCT-116 [13]): 68.4% | Activity (HCT-116 [14]): 0% | inhibition (Sus scrofa [15]): inactive | Activity (MCF7 [16]): Active | viability at 2 µM (MCF7 [17]): 78.2% | Activity (MCF7 [18]): Active | Activity (MCF7 [19]): 0%

COc1ccc(-c2csc3c2-n2cccc2C3=O)cc1O
pIC50 [20]: 5.54

O=C(N/N=C1/c2ncccc2-n2cccc21)c1ccccc1
GI50 (MCF7 [1]): 20700 nM | GI50 (HCT-116 [2]): 4250 nM

CC(=O)O[C@H]1C(=O)[C@@]2(C)[C@H]([C@H](OC(=O)c3ccccc3)[C@]3(O)C[C@H](OC(=O)[C@H](O)[C@@H](NC(=O)c4ccccc4)c4ccccc4)C(C)=C1C3(C)C)[C@]1(OC(C)=O)CO[C@@H]1C[C@@H]2O
Activity (Sus scrofa [21]): Active

O=C(N/N=C1/c2cc(Br)cnc2-n2cccc21)c1ccc(O)cc1
pIC50 (MCF7 [1]): 4.81 | pIC50 (HCT-116 [2]): 5.78 | Activity (Caco-2): Non-Toxic

O=C(N/N=C1/c2cc(Br)cnc2-n2cccc21)c1ccccc1
pIC50 (MCF7 [1]): 4.83 | pIC50 (HCT-116 [2]): 5.76 | Activity (Caco-2): Non-Toxic

Nc1ccc(C(=O)N/N=C2/c3cc(Br)cnc3-n3cccc32)cc1
pIC50 (MCF7 [1]): 5.74 | Activity (HCT-116 [22]): Active | pIC50 (HCT-116 [2]): 6.64 | Activity (HCT-116 [23]): 0% | Activity (HCT-116 [24]): Active | Activity (Caco-2): Non-Toxic | Activity (MCF7 [7]): 0% | Activity (HCT-116 [25]): 32.9% | Activity (HCT-116 [26]): 0% | Activity (MCF7 [8]): Active | viability at 0.3 µM (HCT-116 [27]): 67% | Activity (MCF7 [9]): 24.8% | Activity (MCF7 [12]): Active | inhibition (Sus scrofa [15]): inactive | Activity (HCT-116 [28]): Active | Activity (MCF7 [16]): Active | Activity (HCT-116 [29]): Active | viability at 2 µM (MCF7 [17]): 75.2% | Activity (MCF7 [18]): Active | Activity (MCF7 [19]): 0%

O=C(N/N=C1/c2cc(Br)cnc2-n2cccc21)c1ccncc1
Activity (MCF7 [30]): Active | Activity (MCF7 [31]): 0% | pIC50 (MCF7 [1]): 5.47 | pIC50 (HCT-116 [2]): 6.96 | Activity (HCT-116 [32]): Active | Activity (MCF7 [33]): Active | Activity (HCT-116 [34]): Active | Activity (HCT-116 [35]): Active | Activity (Caco-2): Non-Toxic | Activity (MCF7 [36]): Active | Activity (HCT-116 [37]): 0% | Activity (HCT-116 [38]): Active | Activity (MCF7 [39]): 0% | viability at 0.1 µM (HCT-116 [40]): 73.3% | Activity (HCT-116 [41]): 26.7% | Activity (MCF7 [42]): Active | Activity (HCT-116 [43]): 0% | viability at 3 µM (MCF7 [44]): 76% | Activity (MCF7 [45]): 24% | inhibition (Sus scrofa [15]): inactive

O=C(N/N=C1/c2cccnc2-n2cccc21)c1cccs1
pIC50 (MCF7 [1]): 5.50 | pIC50 (HCT-116 [2]): 6.34 | Activity (Caco-2): Non-Toxic
